# US9133521B2, “Composition for diagnosing Alzheimer's disease using methylation status of HMOX1 gene and method for diagnosing Alzheimer's disease using the same” (Ewha University—Industry Collaboration Foundation, priority 2012, dated 2015)
# System: HMOX1 expression in H4 cell line
# Test: HMOX1 gene expression by qRT-PCR in H4 cell line treated with 5-aza-2′-deoxycytidine
# Type: cell-based, human
# Conditions: normal H4 cell line, 10 μM for 3 days, normalized to GAPDH
# Description: Human neuroglioblastoma cell line, H4 was cultured in a Dulbecco's modified Eagle medium containing 10% fetal bovine serum, 100 U/mL penicillin, 100 μg/mL streptomycin and 2 mM L-glutamine, and APP695-Swedish mutant (K595N/M596L)-expressing Alzheimer's disease model cell line, H4-sw was cultured in the H4 culture medium supplemented with 500 μg/mL geneticine.
# Total RNAs were extracted from the cell line and the brain tissues using an RNeasy mini kit (Qiagen). The extraction method was performed according to the manufacturer's manual. The extracted total RNAs were quantified using a spectrophotometer, and RNA degradation was examined by electrophoresis in a 1% agarose gel.
# For cDNA synthesis, Superscript II reverse transcriptase (Invitrogen) was used. 1 μg of total RNA and 50 ng of oligo dT were denatured at 70° C. for 10 minutes, and then a reaction mixture of 4 μA of 5×RT buffer, 2 μA of […], 4 μA of 2.5 mM dNTP mixture, 200 units of Superscript II reverse transcriptase, 10 units of RNase inhibitor was added thereto. 20 μA of the reaction mixture was reacted at 25° C. for 10 minutes, at 42° C. for 50 minutes, and at 95° C. for 5 minutes for cDNA synthesis. The product was diluted at 1:4, and 2 μA thereof was used as a template of qRT-PCR. […]
smiles,measurement,value
Nc1ncn([C@H]2C[C@H](O)[C@@H](CO)O2)c(=O)n1 [5-aza-2′-deoxycytidine],HMOX1 expression,increased
